Measured values from patent US9133207B2, “Tetrandrine derivatives with substituted 5-carbon, preparation method and use thereof” (Hangzhou Bensheng Pharmaceutical Co., Ltd., priority 2011, dated 2015).
In brackets after ≈: the same amount, converted by molar mass.

What was measured:
[1] = tested on: Kasumi-1 (acute myeloid leukemia M2 type, AML-M2); assay: Leukemia cell growth inhibition, MTT, 72 h (Example 5); assay type: cell-based, human; details: Homo sapiens, Kasumi 1
How it was run: (§1)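 6000 cells per well were seeded in RPMI 1640 with 10% FBS, exposed to graded concentrations of 5-substituted tetrandrine derivatives, and held 72 hours at 37° C, 5% CO2. Viable cell concentration was then measured by MTT.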

[2] = tested on: Jurkat (acute lymphoblastic leukemia, ALL); assay: as above; assay type: cell-based, human; details: for IC50 / IC90: Homo sapiens, Jurkat, 72 h, MTT
How it was run: as §1

[3] = tested on: NB4 (acute promyelocytic leukemia, AML); assay: as above; assay type: cell-based, human; details: Homo sapiens; 72 h, MTT
How it was run: as §1

[4] = tested on: H9 (acute lymphoblastic leukemia, ALL); assay: as above; assay type: cell-based, human; details: Homo sapiens; 72 h, MTT
How it was run: as §1

[5] = tested on: K562/adr (drug-resistant, chronic myeloid leukemia, CML); assay: as above; assay type: cell-based, human; details: Homo sapiens, K562/Adr; 72 h, MTT
How it was run: as §1

[6] = tested on: Hep-2 (laryngeal carcinoma); assay: Solid tumor cell growth inhibition, MTT, 72 h (Example 7); assay type: cell-based, human; details: Homo sapiens; 72 h, MTT, Hep 2
How it was run: (§2)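 Cells (4000/well) were seeded in DMEM high glucose with 10% FBS and grown 24 h at 37 °C, 5% CO2, then exposed to tetrandrine derivatives at different concentrations for 72 h. Viable cells were measured by MTT, with viability expressed as % of untreated control (100%).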

[7] = tested on: PC-3 (prostate cancer); assay: as above; assay type: cell-based, human; details: Homo sapiens; 72 h, MTT, PC-3
How it was run: as §2

[8] = tested on: PANC-1 (pancreatic cancer); assay: as above; assay type: cell-based, human; details: Homo sapiens; 72 h, MTT, PANC-1
How it was run: as §2

[9] = tested on: MG63 (osteosarcoma); assay: as above; assay type: cell-based, human; details: Homo sapiens; 72 h, MTT, MG-63
How it was run: as §2

[10] = tested on: CaES-17 (esophageal cancer cell); assay: as above; assay type: cell-based, human; details: Homo sapiens, CaEs17; 72 h, MTT, CAES-17
How it was run: as §2

[11] = tested on: RPMI8226 (multiple myeloma); assay: Multiple myeloma cell growth inhibition, MTT, 72 h (Example 6); assay type: cell-based, human; details: Homo sapiens, RPMI-8226; 72 h, MTT, RPMI8226
How it was run: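 RPMI8226 cells (6000 per well) in RPMI 1640 with 10% FBS were exposed to a range of tetrandrine derivative concentrations for 72 h at 37 °C under 5% CO2. Viable cell concentration was then measured by MTT.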

[12] = tested on: Hela (human cervical cancer cell); assay: Solid tumor cell growth inhibition, MTT, 72 h (Example 7); assay type: cell-based; details: Homo sapiens; 72 h, MTT, Hela
How it was run: as §2

[13] = tested on: Becap37 (human breast cancer cell); assay: as above; assay type: cell-based; details: Homo sapiens; 72 h, MTT, Becap-37
How it was run: as §2

[14] = tested on: U87 MG (malignant glioma cell); assay: as above; assay type: cell-based; details: Homo sapiens, U-87 MG
How it was run: as §2

[15] = tested on: SK-OV-3 (ovarian cancer cell); assay: as above; assay type: cell-based; details: Homo sapiens
How it was run: as §2

[16] = tested on: MGC 803 (human gastric cancer cell); assay: as above; assay type: cell-based; details: Homo sapiens
How it was run: as §2

[17] = tested on: RKO (human colon adenocarcinoma cell); assay: as above; assay type: cell-based; details: Homo sapiens; 72 h, MTT, RKO
How it was run: as §2

[18] = tested on: Huh7 (human liver cancer cell); assay: as above; assay type: cell-based; details: Homo sapiens; 72 h, MTT, Huh-7
How it was run: as §2

[19] = tested on: A549 (human lung cancer); assay: as above; assay type: cell-based; details: Homo sapiens; 72 h, MTT, A549
How it was run: as §2

[20] = tested on: CNE (nasopharyngeal carcinoma cell); assay: as above; assay type: cell-based; details: Homo sapiens
How it was run: as §2

SMILES: COc1ccc2cc1Oc1ccc(cc1)C[C@H]1c3cc(c(OC)cc3CCN1C)Oc1c(OC)c(OC)c(CNCc3ccco3)c3c1[C@H](C2)N(C)CC3 [BS-TE-350]
- IC50 [1]: 0.54 µg/mL (≈ 0.738 µM)
- IC90 [1]: 2.52 µg/mL (≈ 3.44 µM)
- IC50 [2]: 0.59 µg/mL (≈ 0.806 µM)
- IC90 [2]: 2.97 µg/mL (≈ 4.06 µM)
- anti-Jurkat activity increase over tetrandrine ([2]; compared with tetrandrine): ~4 fold
- IC50 [3]: 0.3 µg/mL (≈ 0.41 µM)
- IC90 [3]: 1 µg/mL (≈ 1.37 µM)
- IC50 [4]: 1.11 µg/mL (≈ 1.52 µM)
- IC90 [4]: 1.92 µg/mL (≈ 2.62 µM)
- IC50 [5]: 0.33 µg/mL (≈ 0.451 µM)
- IC90 [5]: 1.6 µg/mL (≈ 2.19 µM)
- IC50 [6]: 1.51 µg/mL (≈ 2.06 µM)
- IC90 [6]: 4.67 µg/mL (≈ 6.38 µM)
- IC50 [7]: 1.87 µg/mL (≈ 2.56 µM)
- IC90 [7]: 2.83 µg/mL (≈ 3.87 µM)
- IC50 [8]: 1.83 µg/mL (≈ 2.5 µM)
- IC90 [8]: 6.04 µg/mL (≈ 8.25 µM)
- IC50 [9]: 0.8 µg/mL (≈ 1.09 µM)
- IC90 [9]: 1.6 µg/mL (≈ 2.19 µM)
- IC50 [10]: 1.03 µg/mL (≈ 1.41 µM)
- IC90 [10]: 5.13 µg/mL (≈ 7.01 µM)
- IC50 [11]: 0.05 µg/mL (≈ 0.0683 µM)
- IC90 [11]: 1.51 µg/mL (≈ 2.06 µM)
- IC50 [12]: 0.95 µg/mL (≈ 1.3 µM)
- IC90 [12]: 2.5 µg/mL (≈ 3.42 µM)
- IC50 [13]: 0.9 µg/mL (≈ 1.23 µM)
- IC90 [13]: 3.6 µg/mL (≈ 4.92 µM)
- IC50 [14]: 0.3 µg/mL (≈ 0.41 µM)
- IC90 [14]: 1.13 µg/mL (≈ 1.54 µM)
- IC50 [15]: 1.8 µg/mL (≈ 2.46 µM)
- IC90 [15]: 12.9 µg/mL (≈ 17.6 µM)
- IC50 [16]: 0.89 µg/mL (≈ 1.22 µM)
- IC90 [16]: 4.11 µg/mL (≈ 5.62 µM)
- IC50 [17]: 0.45 µg/mL (≈ 0.615 µM)
- IC90 [17]: 0.92 µg/mL (≈ 1.26 µM)
- IC50 [18]: 1.82 µg/mL (≈ 2.49 µM)
- IC90 [18]: 2.43 µg/mL (≈ 3.32 µM)
- IC50 [19]: 3 µg/mL (≈ 4.1 µM)
- IC90 [19]: 11 µg/mL (≈ 15 µM)
- IC50 [20]: 1.3 µg/mL (≈ 1.78 µM)
- IC90 [20]: 3.3 µg/mL (≈ 4.51 µM)

SMILES: COc1ccc2cc1Oc1ccc(cc1)C[C@H]1c3cc(c(OC)cc3CCN1C)Oc1c(OC)c(OC)c(CN3CCCC(CO)C3)c3c1[C@H](C2)N(C)CC3 (stereo partly drawn) [BS-TE-351]
- IC50 [1]: 0.76 µg/mL (≈ 1.01 µM)
- IC90 [1]: 3.59 µg/mL (≈ 4.79 µM)
- IC50 [2]: 1 µg/mL (≈ 1.33 µM)
- IC90 [2]: 5.02 µg/mL (≈ 6.69 µM)
- IC50 [3]: 0.7 µg/mL (≈ 0.933 µM)
- IC90 [3]: 1.9 µg/mL (≈ 2.53 µM)
- IC50 [4]: 0.72 µg/mL (≈ 0.96 µM)
- IC90 [4]: 1.58 µg/mL (≈ 2.11 µM)
- IC50 [5]: 0.82 µg/mL (≈ 1.09 µM)
- IC90 [5]: 3.11 µg/mL (≈ 4.15 µM)
- IC50 [6]: 3.07 µg/mL (≈ 4.09 µM)
- IC90 [6]: 8.13 µg/mL (≈ 10.8 µM)
- IC50 [7]: 1.82 µg/mL (≈ 2.43 µM)
- IC90 [7]: 3.32 µg/mL (≈ 4.43 µM)
- IC50 [8]: 1.87 µg/mL (≈ 2.49 µM)
- IC90 [8]: 7.79 µg/mL (≈ 10.4 µM)
- IC50 [9]: 1.2 µg/mL (≈ 1.6 µM)
- IC90 [9]: 2 µg/mL (≈ 2.67 µM)
- IC50 [10]: 1.38 µg/mL (≈ 1.84 µM)
- IC90 [10]: 8.19 µg/mL (≈ 10.9 µM)
- IC50 [11]: 0.09 µg/mL (≈ 0.12 µM)
- IC90 [11]: 2.43 µg/mL (≈ 3.24 µM)
- IC50 [12]: 1.25 µg/mL (≈ 1.67 µM)
- IC90 [12]: 3.61 µg/mL (≈ 4.81 µM)
- IC50 [13]: 1.08 µg/mL (≈ 1.44 µM)
- IC90 [13]: 4.5 µg/mL (≈ 6 µM)
- IC50 [14]: 0.28 µg/mL (≈ 0.373 µM)
- IC90 [14]: 0.67 µg/mL (≈ 0.893 µM)
- IC50 [15]: 3.5 µg/mL (≈ 4.67 µM)
- IC90 [15]: > 16 µg/mL
- IC50 [16]: 1.49 µg/mL (≈ 1.99 µM)
- IC90 [16]: 7.42 µg/mL (≈ 9.89 µM)
- IC50 [17]: 0.45 µg/mL (≈ 0.6 µM)
- IC90 [17]: 1.25 µg/mL (≈ 1.67 µM)
- IC50 [18]: 1.3 µg/mL (≈ 1.73 µM)
- IC90 [18]: 2.41 µg/mL (≈ 3.21 µM)
- IC50 [19]: 3.9 µg/mL (≈ 5.2 µM)
- IC90 [19]: 16 µg/mL (≈ 21.3 µM)
- IC50 [20]: 1.32 µg/mL (≈ 1.76 µM)
- IC90 [20]: 3.84 µg/mL (≈ 5.12 µM)
